Results on 10 compounds are retold here after US12473294B2, “Selective modulators of mutant LRRK2 proteolysis and associated methods of use” (Arvinas Operations, Inc., priority 2020, dated 2025).

For one test, the target named is T1, wildtype LRRK2 (Homo sapiens, UniProt Q5S007).
T1 construct: endogenous in cells; host or cells: HEK293 with HiBit knocked in at the 3' end of the endogenous LRRK2 gene, stably expressing firefly luciferase
Nature of the test: LRRK2 degradation HiBit assay, wildtype LRRK2 tagged with a HiBit tag in HEK293 cells. It is filed as cell-based. The following applies: 24 hours compound incubation; for Dmax: read-out: ** WT Dmax (%); for DC50: read-out: *WT DC50. On the procedure: The assay measures the degradation of wildtype and G2019S LRRK2 tagged with a HiBit tag on the C-terminus of the protein that was expressed from a mammalian expression vector, driven by the ubiquitin promoter in HEK293 cells. Each compound dose-response was repeated on two separate days, on three separate plates each day.
(§1) Plasmid Preparation. Transfection mixes were assembled as follows and incubated for 30 minutes at room temperature. In a 15 mL tube, 5.25 mL Opti-MEM (no additions) was mixed with 17 μL Firefly Luciferase plasmid at 1 μg/μL and 158 μL WT plasmid DNA at 1 μg/μL (175 μg total DNA) were mixed by flicking. In a new 15 mL tube, 5.25 mL OptiMEM was mixed with 17 μL Firefly Luciferase plasmid at 1 μg/μL and 158 μL G2019S plasmid DNA at 1 μg/μL (175 μg total DNA) were mixed by flicking. X-tremeGene HP was mixed thoroughly using a vortex. Next, 175 μL was added to each tube and flicked to mix. Both tubes were left to incubate for 30 minutes at room temperature.
While the transfection mixes were incubating, HEK293 cells (acquired from ATCC; ATCC CRL-1573) were harvested with trypsin. Once cells are detached, the cells were resuspended in 12 mL OptiMEM+5% FBS and transferred to a 50 mL tube. The cells were mixed well and counted. Using OptiMEM+5% FBS, the cells were diluted in two 250 mL conical tubes at 0.71×10^6 cells/mL in 70 mL. One tube was labeled “WT” and the other “G2019S”. The WT and G2019S transfection mixes were added dropwise to the corresponding 250 mL tubes. The tubes were mixed first by pipetting then by swirling. The tubes were incubated at room temperature for at least 5 minutes.
(§2) Each tube was swirled before dispensing and after every three plates. Seventy microliters of cells were dispensed with WT or G2019S DNA to seven plates each. Three plates of each were tested with compound plate one (preparation described below) and three plates of each were tested with compound plate two (preparation described below). The first plate from each set served as a “prime” plate and was not used to test compounds. Each plate was incubated in the hood for 10 minutes before placing in the 37° C. incubator for 24 hours.
(§3) Preparation of Compound and Assay Plates. Two compound plates were made using 96 well polypropylene plates. Compounds were made up at 10 mM and were diluted to 1 mM in 30 μL. Each dose response curve included a well of DMSO, as a negative control and for normalization, and a well of 0.5 μM of Exemplary Compound 4 as a positive control. In addition to seven test compounds, each plate also included a dose response of Exemplary Compound 4. The compound plates were spun down along at 1200 rpm for 2 minutes.
(§4) The two compound plates were then mixed and 2 μL was diluted in intermediate plates having 248 μL of Opti-Mem in each well. Next, 10 μL diluted compounds from the intermediate plates were added to each test plate (three WT and three G2019S plates per compound plate for a total of 12 assay plates). The plates were incubated for 24 hours at 37° C.
(§5) All assay plates and all Nano-Glo Dual-Luciferase Reporter Assay System components (except for the DLR substrate) were equilibrated to room temperature. Next, the luciferase buffer was mixed with the lyophilized amber bottle until fully dissolved, and 75 μL of the luciferase mixture was added to each well of each assay plate. The assay plates were incubated for 10 minutes at room temperature with shaking for at least 5 minutes, and then read on a plate reader.
(§6) Developing Plates and Analyzing Data. One milliliter of DLR substrate and 1 mL LgBiT Protein were added to the Stop and Glo buffer, and 75 μL of the mixture was added to each well of each plate. Optically clear seals were added to each plate and each plate was incubated for 20 minutes with shaking for at least 10 minutes, and then read on a plate reader. […]

In another test the target is T2, G2019S LRRK2 (Homo sapiens, UniProt Q5S007, G2019S).
T2 construct: expressed in transfected cells; host or cells: HEK293 (ATCC CRL-1573)
Nature of the test: LRRK2 degradation HiBit assay, G2019S LRRK2 tagged with a HiBit tag expressed in HEK293 cells. It is filed as cell-based. The following applies: 24 hours compound incubation; for Dmax: HEK293, HEK293 cells; for DC50: HEK293 cells. On the procedure:
The assay measures the degradation of wildtype and G2019S LRRK2 tagged with a HiBit tag on the C-terminus of the protein that was expressed from a mammalian expression vector, driven by the ubiquitin promoter in HEK293 cells. Each compound dose-response was repeated on three separate days, on three separate plates each day.
as §1
While the transfection mixes were incubating, HEK293 cells acquired from ATCC (ATCC CRL-1573) were harvested with trypsin. Once cells are detached, the cells were resuspended in 12 mL OptiMEM+5% FBS and transferred to a 50 mL tube. The cells were mixed well and counted. Using OptiMEM+5% FBS, the cells were diluted in two 250 mL conical tubes at 0.71×10^6 cells/mL in 70 mL. One tube was labeled “WT” and the other “G2019S”. The WT and G2019S transfection mixes were added dropwise to the corresponding 250 mL tubes. The tubes were mixed first by pipetting then by swirling. The tubes were incubated at room temperature for at least 5 minutes.
as §2, §3, §4, §5, §6

T1 sequence (Q5S007 whole entry): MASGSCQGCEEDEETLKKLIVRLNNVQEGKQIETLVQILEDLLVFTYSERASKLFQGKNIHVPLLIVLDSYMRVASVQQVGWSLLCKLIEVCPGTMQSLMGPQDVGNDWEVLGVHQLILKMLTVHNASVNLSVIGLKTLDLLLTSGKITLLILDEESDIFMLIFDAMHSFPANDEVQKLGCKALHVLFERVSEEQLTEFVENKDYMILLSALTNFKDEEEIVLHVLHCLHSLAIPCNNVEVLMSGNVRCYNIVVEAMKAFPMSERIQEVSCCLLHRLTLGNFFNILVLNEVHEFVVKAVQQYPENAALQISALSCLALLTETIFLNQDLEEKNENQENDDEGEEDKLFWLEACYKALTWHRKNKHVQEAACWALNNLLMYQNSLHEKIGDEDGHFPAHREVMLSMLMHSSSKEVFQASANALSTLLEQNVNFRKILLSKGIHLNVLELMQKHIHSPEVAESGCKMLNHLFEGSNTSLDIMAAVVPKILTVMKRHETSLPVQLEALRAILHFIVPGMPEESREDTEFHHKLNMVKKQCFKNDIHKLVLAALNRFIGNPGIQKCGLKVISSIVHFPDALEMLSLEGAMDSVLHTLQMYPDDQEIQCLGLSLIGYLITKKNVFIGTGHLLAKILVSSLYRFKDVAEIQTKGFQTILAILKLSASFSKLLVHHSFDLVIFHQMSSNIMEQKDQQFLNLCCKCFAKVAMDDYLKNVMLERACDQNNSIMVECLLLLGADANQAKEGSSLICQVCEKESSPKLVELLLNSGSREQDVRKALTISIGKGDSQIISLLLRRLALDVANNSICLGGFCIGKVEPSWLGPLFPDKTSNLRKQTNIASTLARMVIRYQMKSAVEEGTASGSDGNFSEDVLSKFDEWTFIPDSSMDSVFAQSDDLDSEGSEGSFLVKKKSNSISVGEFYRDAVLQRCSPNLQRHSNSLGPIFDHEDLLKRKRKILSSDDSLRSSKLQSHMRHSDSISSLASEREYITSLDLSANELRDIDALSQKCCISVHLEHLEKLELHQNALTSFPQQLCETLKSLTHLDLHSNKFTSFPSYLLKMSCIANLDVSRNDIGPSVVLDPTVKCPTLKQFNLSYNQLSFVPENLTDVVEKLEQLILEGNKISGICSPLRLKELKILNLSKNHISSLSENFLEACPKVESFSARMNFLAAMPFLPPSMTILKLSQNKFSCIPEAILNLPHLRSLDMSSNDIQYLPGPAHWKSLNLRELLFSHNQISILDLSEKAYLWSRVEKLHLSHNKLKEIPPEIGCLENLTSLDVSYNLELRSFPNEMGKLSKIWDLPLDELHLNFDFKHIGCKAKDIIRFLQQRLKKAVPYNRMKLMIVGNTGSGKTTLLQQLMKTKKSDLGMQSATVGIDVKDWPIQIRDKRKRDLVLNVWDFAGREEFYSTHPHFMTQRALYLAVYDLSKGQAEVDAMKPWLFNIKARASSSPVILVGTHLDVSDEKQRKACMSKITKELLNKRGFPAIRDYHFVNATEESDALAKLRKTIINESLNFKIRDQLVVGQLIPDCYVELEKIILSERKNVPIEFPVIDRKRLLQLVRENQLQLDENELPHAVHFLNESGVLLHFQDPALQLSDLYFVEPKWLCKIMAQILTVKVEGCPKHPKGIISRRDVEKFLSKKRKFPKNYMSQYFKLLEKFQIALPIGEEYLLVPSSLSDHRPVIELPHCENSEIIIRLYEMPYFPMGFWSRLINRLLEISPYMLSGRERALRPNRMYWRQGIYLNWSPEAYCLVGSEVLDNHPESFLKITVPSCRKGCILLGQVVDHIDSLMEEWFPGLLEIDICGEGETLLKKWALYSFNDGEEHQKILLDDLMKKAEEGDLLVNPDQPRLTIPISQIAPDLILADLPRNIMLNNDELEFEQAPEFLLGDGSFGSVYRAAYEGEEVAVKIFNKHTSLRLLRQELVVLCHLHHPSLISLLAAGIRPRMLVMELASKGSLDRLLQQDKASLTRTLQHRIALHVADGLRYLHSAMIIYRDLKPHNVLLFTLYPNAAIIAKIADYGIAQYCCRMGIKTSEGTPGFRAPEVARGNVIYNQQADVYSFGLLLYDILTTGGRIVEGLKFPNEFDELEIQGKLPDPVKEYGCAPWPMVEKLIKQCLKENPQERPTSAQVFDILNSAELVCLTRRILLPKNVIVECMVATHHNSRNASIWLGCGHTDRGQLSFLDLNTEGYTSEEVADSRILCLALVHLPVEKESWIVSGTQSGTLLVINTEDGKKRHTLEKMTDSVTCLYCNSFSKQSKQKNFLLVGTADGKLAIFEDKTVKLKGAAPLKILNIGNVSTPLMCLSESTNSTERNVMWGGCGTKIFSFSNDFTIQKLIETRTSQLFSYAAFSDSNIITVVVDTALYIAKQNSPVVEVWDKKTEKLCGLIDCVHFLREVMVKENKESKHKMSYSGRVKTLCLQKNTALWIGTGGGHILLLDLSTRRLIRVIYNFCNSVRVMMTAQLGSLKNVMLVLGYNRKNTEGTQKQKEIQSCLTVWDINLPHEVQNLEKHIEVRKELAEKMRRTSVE
T2 sequence (Q5S007 whole entry G2019S): as the sequence (Q5S007 whole entry) above, with G2019S counted along it

For the compound `CC1=C(C(=O)Nc2ccc3[nH]nc(-c4ccnc(N5CCN(CC6CCN(CC7CCN(c8ccc9c(c8)C(=O)N(C8CCC(=O)NC8=O)C9=O)CC7)CC6)CC5)c4)c3c2)Cn2nnnc2N1C` (stereo not drawn) [compound 13, N-(3-(2-(4-((1-((1-(2-(2,6-dioxopiperidin-3-yl)-1,3-dioxoisoindolin-5-yl)piperidin-4-yl)methyl)piperidin-4-yl)methyl)piperazin-1-yl)pyridin-4-yl)-1H-indazol-5-yl)-4,5-dimethyl-4,7-dihydrotetrazolo[1,5-a]pyrimidine-6-carboxamide], on wildtype LRRK2, the Dmax (in general, the greatest extent of degradation seen) was under 50% and the 50% degradation concentration (DC50) (in general, the midpoint of the concentration-degradation curve) was at least 100 nM. Moreover, at G2019S LRRK2, the Dmax lay within 50 to 70% and the DC50 is 10 to 50 nM.

With `CC1=C(C(=O)Nc2ccc3[nH]nc(-c4ccnc(N5CCN(CC6CN(CC7CCN(c8ccc9c(c8)C(=O)N(C8CCC(=O)NC8=O)C9=O)CC7)C6)CC5)c4)c3c2)[C@@H](C)n2nnnc2N1C` (stereo partly drawn) [compound 17, (7R)-N-(3-(2-(4-((1-((1-(2-(2,6-dioxopiperidin-3-yl)-1,3-dioxoisoindolin-5-yl)piperidin-4-yl)methyl)azetidin-3-yl)methyl)piperazin-1-yl)pyridin-4-yl)-1H-indazol-5-yl)-4,5,7-trimethyl-4,7-dihydrotetrazolo[1,5-a]pyrimidine-6-carboxamide], at wildtype LRRK2, the Dmax lay within 50 to 70% and the DC50 was at least 100 nM. At G2019S LRRK2, the maximal degradation (Dmax) was in the range of 50 to 70% and the 50% degradation concentration (DC50) was 50 to 100 nM.

Turning to `CC1=C(C(=O)Nc2ccc3[nH]nc(-c4ccnc(N5CCN(CCN6CCC(CN7CCN(c8ccc9c(c8)C(=O)N(C8CCC(=O)NC8=O)C9=O)CC7)CC6)[C@@H](C)C5)c4)c3c2)[C@H](C)n2nnnc2N1C` (stereo partly drawn) [compound 31, (7S)-N-(3-{2-[(3S)-4-{2-[4-({4-[2-(2,6-dioxopiperidin-3-yl)-1,3-dioxo-2,3-dihydro-1H-isoindol-5-yl]piperazin-1-yl}methyl)piperidin-1-yl]ethyl}-3-methylpiperazin-1-yl]pyridin-4-yl}-1H-indazol-5-yl)-4,5,7-trimethyl-4H,7H-[1,2,3,4]tetrazolo[1,5-a]pyrimidine-6-carboxamide], on wildtype LRRK2, the DC50 was at least 100 nM. Also, on G2019S LRRK2, the Dmax is under 50% and the DC50 was at least 100 nM.

With `CC1=C(C(=O)Nc2ccc3[nH]nc(-c4ccnc(N5CCN(CC6CCN(CC7CCN(c8ccc9c(c8)C(=O)N(C8CCC(=O)NC8=O)C9=O)CC7)CC6)CC5)c4)c3c2)C(C)(C)n2nnnc2N1C` (stereo not drawn) [compound 29, N-{3-[2-(4-{[1-({1-[2-(2,6-dioxopiperidin-3-yl)-1,3-dioxo-2,3-dihydro-1H-isoindol-5-yl]piperidin-4-yl}methyl)piperidin-4-yl]methyl}piperazin-1-yl)pyridin-4-yl]-1H-indazol-5-yl}-4,5,7,7-tetramethyl-4H,7H-[1,2,3,4]tetrazolo[1,5-a]pyrimidine-6-carboxamide], on wildtype LRRK2, the Dmax was under 50% and the DC50 was at least 100 nM. On G2019S LRRK2, the greatest degradation seen (Dmax) is under 50% and the DC50 lay in the range of 10 to 50 nM.

As to `CC1=C(C(=O)Nc2ccc3[nH]nc(-c4ccnc(N5CCO[C@@H](CN6CCN(CC7CCN(c8ccc9c(c8)C(=O)N(C8CCC(=O)NC8=O)C9=O)CC7)CC6)C5)c4)c3c2)C(C)(C)n2nnnc2N1C` (stereo partly drawn) [compound 32, N-(3-{2-[(2S)-2-{[4-({1-[2-(2,6-dioxopiperidin-3-yl)-1,3-dioxo-2,3-dihydro-1H-isoindol-5-yl]piperidin-4-yl}methyl)piperazin-1-yl]methyl}morpholin-4-yl]pyridin-4-yl}-1H-indazol-5-yl)-4,5,7,7-tetramethyl-4H,7H-[1,2,3,4]tetrazolo[1,5-a]pyrimidine-6-carboxamide], at wildtype LRRK2, the 50% degradation concentration (DC50) was at least 100 nM. In addition, on G2019S LRRK2, the maximal degradation (Dmax) was under 50% and the DC50 fell in the range of 10 to 50 nM.

For `CC1=C(C(=O)Nc2ccc3[nH]nc(-c4ccnc(N5C[C@@H](C)N(CC6CCN(CC7CCN(c8ccc9c(c8)C(=O)N(C8CCC(=O)NC8=O)C9=O)CC7)CC6)[C@@H](C)C5)c4)c3c2)C(C)(C)n2nnnc2N1C` (stereo partly drawn) [compound 6, N-(3-(2-((3S,5R)-4-((1-((1-(2-(2,6-dioxopiperidin-3-yl)-1,3-dioxoisoindolin-5-yl)piperidin-4-yl)methyl)piperidin-4-yl)methyl)-3,5-dimethylpiperazin-1-yl)pyridin-4-yl)-1H-indazol-5-yl)-4,5,7,7-tetramethyl-4,7-dihydrotetrazolo[1,5-a]pyrimidine-6-carboxamide], on wildtype LRRK2, the Dmax is under 50% and the DC50 is at least 100 nM. On G2019S LRRK2, this compound gave a Dmax of under 50% and a 50% degradation concentration (DC50) of 10 to 50 nM.

On to `CC1=C(C(=O)Nc2ccc3[nH]nc(-c4ccnc(N5CCN(CC6CCN(CC7CCN(c8ccc9c(c8)C(=O)N(C8CCC(=O)NC8=O)C9=O)CC7)CC6)[C@@H](C)C5)c4)c3c2)[C@@H](C)n2nnnc2N1C` (single isomer, unassigned) [compound 8], for which, on wildtype LRRK2, the Dmax was in the range of 50 to 70% and the DC50 is 10 to 50 nM. In addition, at G2019S LRRK2, the maximal degradation (Dmax) was in the range of 50 to 70% and the DC50 is under 10 nM.

For the compound `CC1=C(C(=O)Nc2ccc3[nH]nc(-c4ccnc(N5CCN(CC6CCN(CC7CCN(c8ccc9c(c8)C(=O)N(C8CCC(=O)NC8=O)C9=O)CC7)CC6)[C@@H](C)C5)c4)c3c2)[C@H](C)n2nnnc2N1C` (single isomer, unassigned) [compound 9], the results for the Dmax at wildtype LRRK2 and on G2019S LRRK2 were under 50% and 50 to 70%, respectively. Besides, the half-maximal degradation concentration (DC50) on wildtype LRRK2 is at least 100 nM; at G2019S LRRK2 it was 50 to 100 nM.

Take `CC1=C(C(=O)Nc2ccc3[nH]nc(-c4ccnc(N5CCN(CCN6CCN(CC7CCN(c8ccc9c(c8)C(=O)N(C8CCC(=O)NC8=O)C9=O)CC7)CC6)[C@@H](C)C5)c4)c3c2)[C@H](C)n2nnnc2N1C` (stereo partly drawn) [compound 28, (7S)-N-(3-{2-[(3S)-4-{2-[4-({1-[2-(2,6-dioxopiperidin-3-yl)-1,3-dioxo-2,3-dihydro-1H-isoindol-5-yl]piperidin-4-yl}methyl)piperazin-1-yl]ethyl}-3-methylpiperazin-1-yl]pyridin-4-yl}-1H-indazol-5-yl)-4,5,7-trimethyl-4H,7H-[1,2,3,4]tetrazolo[1,5-a]pyrimidine-6-carboxamide]: the half-maximal degradation concentration (DC50) at wildtype LRRK2 is at least 100 nM. On G2019S LRRK2, this compound displayed a Dmax of 50 to 70% and a DC50 of at least 100 nM.

For the compound `CC1=C(C(=O)Nc2ccc3[nH]nc(-c4ccnc(N5CCN(CCN6CCN(CC7CCN(c8ccc9c(c8)C(=O)N(C8CCC(=O)NC8=O)C9=O)CC7)CC6)CC5)c4)c3c2)[C@@H](C)n2nnnc2N1C` (stereo partly drawn) [compound 21, (7R)-N-(3-(2-(4-(2-(4-((1-(2-(2,6-dioxopiperidin-3-yl)-1,3-dioxoisoindolin-5-yl)piperidin-4-yl)methyl)piperazin-1-yl)ethyl)piperazin-1-yl)pyridin-4-yl)-1H-indazol-5-y1)-4,5,7-trimethyl-4,7-dihydrotetrazolo[1,5-a]pyrimidine-6-carboxamide], the half-maximal degradation concentration (DC50) at wildtype LRRK2 is at least 100 nM. Further, at G2019S LRRK2, the Dmax was 50 to 70% and the DC50 was at least 100 nM.
